# Assays:
# [1] = Cell viability by MTT assay; type: cell-based, murine; details: mouse, BV-2 microglial cells, percentage of the LPS-only treatment group, compounds at 20 μM, 1 μg/mL LPS, BV-2 cells
# Experimental: BV-2 murine microglial cells, acquired from Peking Union Medical College Cell Bank, were cultured in Dulbecco’s modified Eagle’s medium supplemented with 10% (v/v) heat-inactivated fetal bovine serum, penicillin (100 U/mL), and streptomycin ([…]) in carbon dioxide cell incubator. When cell growth density outnumbered 90%, BV-2 cells were seeded in 96-well plates at a density of 2 × 10^4/well, 100 μL) and incubated for 24 h. Next, the cells were treated with the compounds (DMSO as solvent) at 20 μM for 24 h in DMEM with 1 μg/mL LPS. Cells treated with DMSO alone were used as the negative control. After adding 20 μL of 10 mg/mL MTT reagent to each well, the samples were shaken lightly and incubated at 37 °C for 4 h. The supernatant was removed, the blue-purple crystals were fully dissolved in DMSO (200 μL), and the absorbance of each well was read at 570 nm (Tecan Sunrise, Switzerland). Percentage of cell viability is calculated as: (absorbance of treated well/absorbance of control well) × 100%.
# [2] = test system: NO production induced by LPS in BV-2 microglial cells; experiment: Nitric oxide (NO) production inhibitory assay (Griess reaction); type: cell-based, murine; details: for anti-inflammatory activity (reducing the release of NO), in words / inhibition at 20 µM: LPS-induced BV-2 microglial cells; for IC50 / inhibition at 20 µM: Mus musculus; for IC50: LPS (1 μg/mL)-induced BV-2 microglial cells, 24 h, 0.1–20.0 μM, read-out: IC50, inhibition of NO production
# Experimental: BV-2 cells were seeded into 96-well plates at 2 × 10^4 cells/100 μL of medium and incubated for 24 h. Then, cells were treated with 1 μg/mL of lipopolysaccharide (LPS) and various concentrations (0.1–20.0 μM) of test compounds (DMSO as solvent) for 24 h. An equal amount of DMSO and LPS were served as the controls; quercetin (J&K Scientific, Beijing, China) was taken as the positive control). The NO concentration in the medium was measured by using a Nitric Oxide Assay Kit, according to the accumulated levels of nitrite in the supernatants by a standard Griess reaction. As follows, 50 μL of the culture supernatant of BV-2 cells was reacted with 50 μL of Griess reagent I and Griess regent II successively in a 96-well plate. The absorbance at 570 nm of the mixture was measured using a microplate reader. IC50 values were calculated as the concentrations that reduced NO production by 50%. Quercetin was taken as the positive control.
SMILES,"viability at 24 h, 20 µM [1] [%]","anti-inflammatory activity (reducing the release of NO), in words [2]",IC50 [2] [µM],inhibition at 20 µM [2] [%]
"CC(=O)O[C@@]12C[C@H](O)[C@]1(C)C[C@H]1C[C@@](C)(CO)CC1=C2C [Compound 2, sterpurol E]",97.1 ± 4,moderate anti-inflammatory activity,9.93 ± 0.99,85.4
"O=c1c(O)c(-c2ccc(O)c(O)c2)oc2cc(O)cc(O)c12 [Quercetin, quercetin, reference compound]",101.5 ± 0.83,–,9.75 ± 0.79,95.6
"CC(=O)O[C@@]12CC[C@]1(C)C[C@H]1C[C@@](C)(CO)CC1=C2C [Compound 5, sterpurol B]",107 ± 2.73,significant anti-inflammatory activity,9.06 ± 1.13,99.3
"CC1=C2C[C@@](C)(C(=O)O)C[C@H]2C[C@](C)(O)C12CC2 [Compound 6, paneolilludinic acid]",104 ± 2.67,moderate anti-inflammatory activity,11.5 ± 0.58,79.1
"CC(=O)OCC1(C)CC2=C(C)C3(OC(C)=O)CCC3(C)CC2C1 (centres unmarked) [Compound 1, sterpurol D]",103 ± 4.73,moderate anti-inflammatory activity,14.8 ± 2.23,75.9
"CC1=C2C[C@](C)(CO)C[C@@H]2C[C@@]2(C)CC[C@@]12O [Compound 4, sterpurol A]",98.7 ± 1.18,moderate anti-inflammatory activity,15.3 ± 1.43,73.1
"C/C(=C\CO)CC/C=C(\C)CC[C@@H](O)C(C)(C)O [Compound 8, (–)-10,11-dihydroxyfarnesol]",99.12 ± 0.18,moderate anti-inflammatory activity,12.2 ± 0.4,76.8
"CC1=CC2C(C[C@H]1O)[C@@](C)(O)CC[C@H]2C(C)C (stereo partly drawn) [Compound 7, murolane-2α, 9β-diol-3-ene]",–,–,> 20,51.7
